Test results from PMC7139703, “Thiopurine Derivative-Induced Fpg/Nei DNA Glycosylase Inhibition: Structural, Dynamic and Functional Insights” (International Journal of Molecular Sciences, 2020).
Where two headings read alike, the source gives them in different places.

What was measured:
LlFpg = biological target: T1, LlFpg (Lactococcus lactis subsp. cremoris, UniProt P42371); assay: LlFpg 8-oxoG-DNA glycosylase/AP lyase activity assay (Urea-PAGE radioassay); type: biochemical; details: for IC50: catalytic activity at 37 °C, compound stock (redox mixture) in DMSO, 20 nM 8-oxoG:C 24-mer, 2 nM LlFpg
T1 construct: made in house; host or cells: E. coli BH540 (fpg defective)
Experimental: Figure 1 Effect of 2-thioxanthine (2TX)-derivatives on Fpg activity. A total of 20 nM of 5′-[^32P]-8-oxoG-containing 24-bp DNA duplex (labeled on the damaged strand) was incubated with 2 nM of LlFpg alone (dimethyl sulfoxide (DMSO) control) or with the indicated 2TX and 2TX-derivatives (TXn) concentrations, as described in the “Materials and Methods” section. (a) Screening of TXn for Fpg inhibition. Averages and standard deviations were obtained from at least three independent experiments. Mono- and di-thiolated compounds are highlighted in red and blue, respectively. (b) Dose-response curves for best inhibitors. Each data point represents the mean value obtained from at least three independent measurements.
(§1) Fpg, hNeil1 and mvNei1 are bifunctional DNA glycosylases associated with concerted DNA glycosylase activity (cleavage of the N-glycosidic bond between the base lesion and the C1′ of the deoxyribose) and AP lyase activity that comprises the successive cleavage of the phosphodiester bonds at the 3′ and 5′ of the resulting abasic (AP) site, respectively (β, δ-elimination). Thus, AP sites that result from the excision of the damaged base are quantitatively converted into one nucleoside gap by these enzymes. The DNA glycosylase/AP lyase activity of each enzyme was measured by incubating 20 nM of 24-mer DNA duplexes ([OG:C] and [DHU:G] for Fpg and hNeil1/mvNei1, respectively) 5′-labeling on the damaged strand (see above) with 2 nM of Fpg, or mvNei1 for 15 min or, with 20 nM of hNeil1 for 30 min at 37 °C in 10 mM Tris-HCl, pH 7.6, 150 mM NaCl, 1 mM EDTA, 0.1 mg/mL BSA and 8% DMSO. The reaction was stopped by the addition of 1 volume of formamide loading buffer (96% formamide, 20 mM Tris/HCl pH 8.0 and 2 mM Na2EDTA), heated at 80 °C for 2 min and then analyzed by 20% Urea-PAGE, as previously described. […] Under these conditions, only 50% of the substrate is converted to the cleavage product (limiting enzyme concentration conditions). For an initial evaluation of the inhibitory effect, 40 µM of 2TX/TXn was used. The thio-compound was added to the reaction mixture before the final addition of the enzyme (competition condition). For the best identified inhibitors, a dose-response curve was generated and IC50^A determined (Figure 1 and Table 1).

hNeil1 = hNeil1 (Homo sapiens, UniProt Q96FI4); assay: hNeil1 DNA glycosylase/AP lyase activity assay on DHU:G 24-mer duplex; type: biochemical; parameters: Overproduction was performed as described above for full length hNeil1; 6His (C); made in house; host or cells: E. coli Rosetta2 (DE3); details: for effect on hNeil1 catalytic activity: 0.2 mM compound
Experimental: Figure 4 Comparative analysis of the effect of 2TX and TXn on Fpg/Nei DNA glycosylases. Enzyme activities were measured as described in the Figure 1 legend using […] of a 5′-[^32P]-24-mer DNA duplex containing either an 8-oxoG opposite C for LlFpg or a […] (DHU) opposite G for hNeil1 and mvNei1. The DNA probe was incubated with the indicated protein concentration and 0.2 mM TXn compounds in the presence or absence of 1 mM dithiothreitol (DTT) and TCEP (a representative experiment is illustrated by the upper histograms). The DNA probe for EMSA was 0.1 nM of 5′-[^32P]-[…] DNA duplex containing THF with LlFpg and mvNei1 (bottom panels: gel autoradiography) with the indicated conditions and as described in ‘Materials and Methods’.
as §1

[1] = read-out: IC50app^A (Fpg/Nei enzyme catalysis) LlFpg
[2] = catalytic activity at 37 °C, compound stock in DMSO, DHU:G 24-mer, read-out: IC50app^A (Fpg/Nei enzyme catalysis) hNEIL1
[3] = IC50app^A (Fpg/Nei enzyme catalysis) LlFpg

Sequence of hNeil1 (Q96FI4 whole entry): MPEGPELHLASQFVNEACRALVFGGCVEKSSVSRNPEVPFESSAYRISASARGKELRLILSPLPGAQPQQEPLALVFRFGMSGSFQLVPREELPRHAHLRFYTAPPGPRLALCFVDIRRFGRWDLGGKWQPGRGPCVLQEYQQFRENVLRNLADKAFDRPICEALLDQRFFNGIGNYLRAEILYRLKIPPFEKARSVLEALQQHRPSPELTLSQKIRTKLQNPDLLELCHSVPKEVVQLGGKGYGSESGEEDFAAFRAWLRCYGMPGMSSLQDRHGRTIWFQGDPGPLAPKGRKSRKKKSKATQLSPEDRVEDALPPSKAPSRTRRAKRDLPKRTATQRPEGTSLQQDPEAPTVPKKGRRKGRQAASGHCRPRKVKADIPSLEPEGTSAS
T1 sequence (P42371 2-273): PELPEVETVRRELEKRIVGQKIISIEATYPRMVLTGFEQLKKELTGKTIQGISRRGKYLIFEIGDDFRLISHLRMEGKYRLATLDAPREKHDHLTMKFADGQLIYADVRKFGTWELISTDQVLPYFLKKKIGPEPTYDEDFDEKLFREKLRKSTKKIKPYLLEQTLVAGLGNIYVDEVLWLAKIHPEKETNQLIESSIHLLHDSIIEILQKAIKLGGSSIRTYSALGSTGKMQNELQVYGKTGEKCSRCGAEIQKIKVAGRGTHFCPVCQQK

SMILES	IC50 (LlFpg; [1]) [µM]	effect on hNeil1 catalytic activity (hNeil1; Figure 4)	IC50 (hNeil1; [2]) [µM]	effectiveness on Fpg relative to 2TX (LlFpg; from IC50app^A)	IC50 (hNeil1) [µM]	IC50 (LlFpg; [3]) [µM]	inhibition of hNeil1 DNA binding and catalytic activities in the presence of TCEP (hNeil1; 1 mM TCEP (DTT to a lesser extent), Figure 4)
O=c1[nH]c(=S)[nH]c2nc[nH]c12 [Compound 2TX, 2-thioxanthine, reference compound]	48 ± 4	did not significantly affect	> 500	–	–	–	–
FC(F)(F)c1nc(S)c2nc[nH]c2n1 [TX13, 2-trifluoromethyl-6-thiopurine]	7.5 ± 1	–	–	seven times more effective than 2TX	> 250	–	–
O=c1[nH]c2[nH]c(=S)[nH]c(=O)c2[nH]1 [TX14, 2-thio-6,8-dioxopurine]	–	–	> 500	–	–	28 ± 7	–
O=c1[nH]c(=S)[nH]c2[nH]c(=S)[nH]c12 [TX19]	15 ± 1	apparent inhibitory effects	19 ± 1	–	–	–	suppressed
Nc1ncnc2[nH]c(S)nc12 [TX27]	–	–	160 ± 16	–	–	20 ± 2	–
